# Measurements: publication PMC3805709 (Nature chemical biology, 2013)
# What was measured:
# CLC-ec1 [1] = biological target: CLC-ec1 (Escherichia coli, UniProt P37019, E148A); assay: biochemical
# CLC-ec1 [2] = biological target: CLC-ec1 (Escherichia coli, UniProt P37019); assay: biochemical
# Chain of CLC-ec1 (Escherichia coli, UniProt P37019) (P37019 whole entry): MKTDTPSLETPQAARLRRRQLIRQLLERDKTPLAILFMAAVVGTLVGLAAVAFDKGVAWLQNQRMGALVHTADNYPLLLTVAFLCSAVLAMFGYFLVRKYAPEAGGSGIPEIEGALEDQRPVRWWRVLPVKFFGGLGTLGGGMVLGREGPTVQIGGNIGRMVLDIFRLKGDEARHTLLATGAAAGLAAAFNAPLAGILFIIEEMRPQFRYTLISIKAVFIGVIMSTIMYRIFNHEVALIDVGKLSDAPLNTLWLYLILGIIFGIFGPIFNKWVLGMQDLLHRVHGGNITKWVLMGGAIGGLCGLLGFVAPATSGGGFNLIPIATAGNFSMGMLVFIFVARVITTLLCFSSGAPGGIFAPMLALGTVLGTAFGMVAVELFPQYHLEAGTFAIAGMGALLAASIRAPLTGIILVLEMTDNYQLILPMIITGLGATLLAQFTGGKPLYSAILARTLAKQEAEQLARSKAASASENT
# Chain of CLC-ec1 (Escherichia coli, UniProt P37019, E148A) (P37019 whole entry E148A): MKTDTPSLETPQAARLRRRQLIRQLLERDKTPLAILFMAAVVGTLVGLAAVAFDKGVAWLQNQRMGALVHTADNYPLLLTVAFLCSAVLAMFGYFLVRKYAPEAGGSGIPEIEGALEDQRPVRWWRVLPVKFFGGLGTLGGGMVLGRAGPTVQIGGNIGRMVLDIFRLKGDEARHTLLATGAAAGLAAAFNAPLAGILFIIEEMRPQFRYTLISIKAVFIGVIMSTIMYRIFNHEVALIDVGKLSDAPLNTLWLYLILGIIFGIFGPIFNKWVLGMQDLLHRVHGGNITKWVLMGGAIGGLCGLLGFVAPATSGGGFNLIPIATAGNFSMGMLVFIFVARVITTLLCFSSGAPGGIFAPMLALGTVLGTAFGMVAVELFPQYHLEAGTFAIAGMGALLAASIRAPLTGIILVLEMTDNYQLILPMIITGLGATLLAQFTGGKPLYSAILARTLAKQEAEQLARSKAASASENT
SMILES,Kd (CLC-ec1 [1]) [µM],Kd (CLC-ec1 [2]) [µM]
F [F^−],180,1000
Cl [Cl^−],,600
